In the first assay the target is T1, MC-4 receptor (Homo sapiens, UniProt P32245).
T1 construct: expressed in transfected cells; host or cells: HEK cells (stably transfected)
T1 sequence (P32245 whole entry): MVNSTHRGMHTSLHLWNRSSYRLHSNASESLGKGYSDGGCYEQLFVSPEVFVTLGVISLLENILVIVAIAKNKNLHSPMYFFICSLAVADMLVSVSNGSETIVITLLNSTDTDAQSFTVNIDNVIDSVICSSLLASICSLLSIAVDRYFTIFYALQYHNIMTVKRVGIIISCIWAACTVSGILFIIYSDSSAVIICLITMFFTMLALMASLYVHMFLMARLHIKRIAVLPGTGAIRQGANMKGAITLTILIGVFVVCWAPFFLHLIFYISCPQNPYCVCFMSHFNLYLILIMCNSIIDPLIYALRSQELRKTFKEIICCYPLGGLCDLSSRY
The assay can be described thus: BioTrak cAMP direct enzymeimmunoassay in HEK cells stably transfected with MC-1, MC-3 or MC-4 receptors (% cAMP relative to NDP-MSH). It counts as cell-based. As to conditions: % of maximal cAMP produced by NDP-MSH; concentrations 1×10^−8 to 1×10^−4 molar; HEK cells transfected with MC-1, MC-3 or MC-4. The protocol:
The NDP-MSH standard was evaluated for the level of c-AMP release at each receptor and the values for the test samples were expressed as a % of the maximal amount produced by NDP-MSH. 1R, 3R, and 4R correspond respectively to the MC-1, MC-3, and MC-4 receptors. The % c-AMP produced by each compound was measured at concentrations from 1×10^−8 to 1×10^−4 molar.
As used herein, “MC-4 agonist” and “MC-3 agonist” refers to a compound with affinity for the MC-4 receptor or MC-3 receptor, respectively, that results in measurable biological activity in cells, tissues, or organisms which contain the MC-4 or MC-3 receptor. […] One particularly useful assay is the BioTrak TM cAMP direct enzymeimmunoassay (EIA) system from Amersham Pharmacia Biotech, which quantitates the cAMP response of cells to MC ligands. This system allows the simple quantitation of total cellular cAMP measurement in cells exposed to selective ligands. Briefly summarized: HEK cells stably transfected with the MC-1, MC-3 or MC-4 receptors are plated into 96 well microtiter plates and grown overnight. Cells are dosed with the appropriate MC ligand for 1 hour and then lysed. A fraction of the lysed cell extract is transferred to the assay plate. The ELISA assay is performed according to kit instructions. Each plate contains a series of cAMP standards for calculating a standard curve, as well as a full MC agonist as a positive control for each MC receptor. cAMP activity is calculated as a % of the maximum cAMP activity of the full MC agonist control.
A compound's selectivity is determined from a comparison of its EC50 values at the relevant receptors being referenced. As used herein, use of the term “selective over the other MC receptors” means selective with respect to all of the MC-1, MC-2 and MC-5 receptors. For example, a compound having an EC50 of 8 nM at the MC-4 receptor and an EC50 of ≧80 nM at the MC-1, MC-2 and MC-5 receptors has a selectivity ratio for the MC-4 receptor over the other MC receptors of at least 1:10. Additionally, it will be recognized that selectivity may also refer to one of the MC-1, MC-2 or MC-5 receptors individually. For example, a compound having an EC50 of 8 nM at the MC-4 receptor and an EC50 of 80 nM at the MC-1 receptor has a selectivity ratio for the MC-4 receptor over the MC-1 receptor of 1:10. Such a compound is selective over the MC-1 receptor, regardless of its EC50 value for MC-2 or MC-5. Selectivity is described in more detail below and may be determined by using, for example, the software Prism v 2.0 which is available from GraphPad, Inc.
As to Ac-a[EYfRWGK]-NH2 [Example 5], the “selectivity shown by % cAMP activity at various concentrations at MC-1R, MC-3R and MC-4R” value (“selectivity shown by % cAMP activity” for short) was “selectivity of this analog for MC-4R over the MC-3R and MC-1R”.
Consider Ac-a[EYfRWG(Orn)]-NH2 [Example 4], for which the “selectivity shown by % cAMP activity” value is “selectivity of this analog for MC-4R over the MC-3R and MC-1R”.
On the same count and under the same terms, the same measure for Ac-aDYfRWK-NH2 [Example 14]: “selectivity of this analog for MC-4R over MC-1R”; for Ac-a[DYfRWG(Orn)]-NH2 [Example 31]: “selectivity of this analog for MC-4R over MC-1R”; for Ac-aDYfRWG(Orn)-NH2 [Example 17]: “selectivity of this analog for MC-4R over MC-1R”.
On the same count and under the same terms, the same measure for Ac-aEYfRWG(Orn)-NH2: “selectivity of this analog for MC-4R over MC-1R”; for Ac-NIeDHfRWGK-NH2 [reference compound]: “non-selective agonist”; for Ac-[DYfRWGK]-NH2 [Example 2]: “selectivity of this analog for MC-4R over the MC-3R and MC-1R”.
Still for that read-out and setting: with “Ac-SYSNIeEHfRWGKPV-NH2 [reference compound]” the entry was “non-selective agonist”.
On to Ac-aDYfRWGK-NH2 [Example 16], for which the “selectivity shown by % cAMP activity” value was “selectivity of this analog for MC-4R over the MC-3R and MC-1R”.

Test system in the next assay: not listed separately
The assay is described as follows: Example A: treatment of an obese human subject to incur weight loss. It counts as in vivo. As to conditions: obese human 130 kg; intravenous injection once each day for 6 months, 15 ml aqueous solution with 5 mg/ml compound. The protocol: An obese human subject weighing 130 kg is treated by this method to incur weight loss. Specifically, once each day for a period of 6 months, the subject is administered, via intravenous injection, 15 ml of an aqueous solution comprising the following: […]
On to Ac-a[DYfRWGK]-NH2 [Example 1], for which the “weight loss at the end of the treatment period” value is reported as “measurable weight loss”.

Values taken from patent US6951916B2, “Melanocortin receptor ligands” (The Procter & Gamble Company, priority 1999, dated 2005).
